Consider eight compounds from ChEMBL document CHEMBL1201862, “PubChem BioAssay data set” (2004).

Some test systems named below: LOX IMVI; MDA-MB-435; U-251; SF-295; SW-620; DU-145; MDA-MB-231; COLO 205; Malme-3M; KM12; OVCAR-5; ACHN; SR; T47D; CAKI-1; SK-MEL-2; HOP-92; NCI-H226; HL-60.
Common to all, as to experiment: NCI-60 cell line screen, 48 h

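Five compound concentrations were applied to cells in 96-well plates for 48 hours; endpoints were derived by simple linear interpolation of the resulting dose-response curve. The concentration for 50% growth inhibition is given as GI50.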 Calls of active or inactive are those of the source. Cut-off read from the data, not from the text of the source: active = GI50 up to about 1.1 µM and inactive = higher.

Consider `CN(C)Cc1cc(C(C)(C)C)cc(CN(C)C)c1O`, for which the GI50 is 95.9 µM (inactive) with LOX IMVI; > 100 µM (inactive) with MDA-MB-435; 98.6 µM (inactive) in the assay with U-251; 44.6 µM (inactive) in the assay with SF-295; 66.1 µM (inactive) in the assay with SW-620; 83.8 µM (inactive) in the assay with DU-145. Also, the GI50 is 92.5 µM (inactive) in the assay with MDA-MB-231; 35.8 µM (inactive) in the assay with COLO 205; > 100 µM (inactive) with Malme-3M; 70.8 µM (inactive) with KM12; 57.3 µM (inactive) in the assay on OVCAR-5; 65.3 µM (inactive) in the assay with ACHN. The GI50 was 54.8 µM (inactive) in the assay with SR; > 100 µM (inactive) in the assay on T47D; > 100 µM (inactive) in the assay on CAKI-1; > 100 µM (inactive) with SK-MEL-2; > 100 µM (inactive) in the assay on HOP-92.

With `Brc1ccc2c(c1)C1=C(CO2)Cc2ccccc2O1`, the GI50 in the assay on LOX IMVI is 17.4 µM (inactive); with MDA-MB-435, 16.9 µM (inactive); in the assay on U-251, 19.1 µM (inactive); with SF-295 it was 18.1 µM (inactive); with SW-620, 23.4 µM (inactive); with DU-145, 21.5 µM (inactive). The GI50 is 17.5 µM (inactive) with NCI-H226; 16.4 µM (inactive) with MDA-MB-231; 17.4 µM (inactive) in the assay on COLO 205; 20.7 µM (inactive) with Malme-3M; 19 µM (inactive) with KM12; 19.1 µM (inactive) in the assay with OVCAR-5. Further, the GI50 was 19.2 µM (inactive) in the assay with ACHN; 36.2 µM (inactive) with SR; 13.1 µM (inactive) with T47D; 18.2 µM (inactive) with CAKI-1; 17.7 µM (inactive) in the assay on SK-MEL-2; 15.6 µM (inactive) with HOP-92.

In the case of `C=CCN(Cc1ccncc1)C(=O)C(O)(c1ccccc1)c1ccccc1`, the GI50 with LOX IMVI was 97.9 µM (inactive); with MDA-MB-435, 17.3 µM (inactive); in the assay on U-251, 76.2 µM (inactive); in the assay with SF-295 it was 57.3 µM (inactive); in the assay on SW-620 it was > 100 µM (inactive); in the assay with HL-60, 35.3 µM (inactive). The GI50 in the assay on DU-145 was > 100 µM (inactive); in the assay with NCI-H226, > 100 µM (inactive); with MDA-MB-231, > 100 µM (inactive); with COLO 205 it was 45.8 µM (inactive); with Malme-3M it was 51.9 µM (inactive); in the assay with KM12 it was 35.2 µM (inactive). Besides, the GI50 with OVCAR-5 was > 100 µM (inactive); in the assay with ACHN it was > 100 µM (inactive); with SR it was 32.7 µM (inactive); with T47D, 39.9 µM (inactive); with CAKI-1, 31.5 µM (inactive).

Regarding `CCOC(=O)N(Cc1cccs1)c1cc(OC)c(OC)c(OC)c1`, the GI50 was 45.2 µM (inactive) with LOX IMVI; 17.4 µM (inactive) in the assay on MDA-MB-435; > 100 µM (inactive) in the assay with U-251; > 100 µM (inactive) in the assay with SF-295; > 100 µM (inactive) in the assay with SW-620; 34.8 µM (inactive) with HL-60. The GI50 was > 100 µM (inactive) in the assay on DU-145; 86.3 µM (inactive) with NCI-H226; 75 µM (inactive) in the assay on MDA-MB-231; 7.18 µM (inactive) with COLO 205; > 100 µM (inactive) in the assay on Malme-3M; 47.5 µM (inactive) with KM12. Further, the GI50 is > 100 µM (inactive) with OVCAR-5; > 100 µM (inactive) in the assay with ACHN; 21.3 µM (inactive) in the assay with SR; 54.1 µM (inactive) with T47D; 56.5 µM (inactive) in the assay with CAKI-1; 26.5 µM (inactive) in the assay with SK-MEL-2.

Take `CC(=O)NCCSC(=O)c1ccccc1`: the GI50 with LOX IMVI is 0.124 µM (active); in the assay on MDA-MB-435, 0.18 µM (active); in the assay with U-251, 0.166 µM (active); with SF-295 it was 0.147 µM (active); in the assay on SW-620, 0.0295 µM (active); with DU-145 it was 0.199 µM (active). Moreover, the GI50 with NCI-H226 was 0.116 µM (active); in the assay on MDA-MB-231, 1.98 µM (inactive); in the assay with COLO 205 it was 0.158 µM (active); with Malme-3M, 0.119 µM (active); with KM12 it was 0.449 µM (active); with OVCAR-5 it was 0.141 µM (active). The GI50 was < 0.0195 µM (active) with ACHN; 0.0146 µM (active) in the assay on SR; 0.197 µM (active) in the assay on T47D; 0.0226 µM (active) with CAKI-1; 0.295 µM (active) with SK-MEL-2; 0.918 µM (active) in the assay with HOP-92.

Consider `CC(=O)Oc1ccccc1-c1cc2ccccc2oc1=O`, for which the GI50 with LOX IMVI is > 100 µM (inactive); in the assay on MDA-MB-435, > 100 µM (inactive); with SF-295, 91.2 µM (inactive); in the assay on SW-620, > 100 µM (inactive); in the assay on HL-60, > 100 µM (inactive); in the assay with DU-145, > 100 µM (inactive). Further, the GI50 in the assay on NCI-H226 was 31 µM (inactive); with MDA-MB-231 it was > 100 µM (inactive); with COLO 205, > 100 µM (inactive); in the assay on Malme-3M, > 100 µM (inactive); with KM12, > 100 µM (inactive); in the assay with OVCAR-5 it was > 100 µM (inactive). Besides, the GI50 in the assay on ACHN was > 100 µM (inactive); in the assay on SR, > 100 µM (inactive); in the assay on T47D it was 97.7 µM (inactive); in the assay on SK-MEL-2 it was > 100 µM (inactive).

For the compound `COc1ccc(/C(Br)=C2\OC(=O)c3ccccc32)cc1`, the GI50 in the assay with LOX IMVI, with MDA-MB-435, with U-251, in the assay on SF-295, in the assay on SW-620 and with HL-60 was > 10 µM (inactive) each time. The GI50 in the assay with DU-145, with NCI-H226, in the assay on MDA-MB-231, in the assay with COLO 205, with KM12 and with OVCAR-5 was > 10 µM (inactive) throughout. The GI50 with ACHN, in the assay on SR, with T47D, in the assay with CAKI-1, with SK-MEL-2 and in the assay on HOP-92 was > 10 µM (inactive) in each case.

As to `Cn1ncc2[nH]cnc2c1=S`, the GI50 with MDA-MB-435 was > 100 µM (inactive); with U-251, > 100 µM (inactive); in the assay on SF-295 it was > 100 µM (inactive); in the assay on SW-620, > 100 µM (inactive); in the assay on HL-60 it was 0.541 µM (active); in the assay on DU-145, > 100 µM (inactive). Besides, the GI50 in the assay with NCI-H226 is > 100 µM (inactive); in the assay on MDA-MB-231, > 100 µM (inactive); with COLO 205, 47.5 µM (inactive); in the assay on KM12, > 100 µM (inactive); in the assay on OVCAR-5 it was > 100 µM (inactive); in the assay with ACHN it was > 100 µM (inactive). The GI50 is 26.7 µM (inactive) in the assay on SR, > 100 µM (inactive) with T47D, > 100 µM (inactive) with CAKI-1 and > 100 µM (inactive) with SK-MEL-2.
